Values joined by “and” are separate entries in the source; they are usually repeats but may differ in a detail not shown here. Equal entries are not always repeated.
Conditions: 323.15 K, Liquid, Vibrating tube method

CCCCCC(=O)OCC(COC(=O)CCCCC)(COC(=O)CCCCC)COC(=O)CCCCC [pentaerythritol tetrahexanoate]
Conditions	mass density
1417.8 kPa	973.7 kg/m3
1423 kPa	973.6 kg/m3
1428.2 kPa	973.6 kg/m3
1434.7 kPa	973.7 kg/m3
1469.9 kPa	973.8 kg/m3
1475.5 kPa	973.7 kg/m3
1482.4 kPa	973.8 kg/m3
1487.6 kPa	973.7 kg/m3
1494.2 kPa	973.8 kg/m3
1505.5 kPa	973.8 kg/m3
1510.7 kPa	973.7 kg/m3
1517 kPa	973.8 kg/m3
1522.7 kPa	973.9 kg/m3
1529.6 kPa	973.7 kg/m3
1536.8 kPa	973.7 kg/m3
1600 kPa	973.8 kg/m3
1606.9 kPa	973.8 kg/m3
1612.8 kPa	973.9 kg/m3
1619 kPa	973.7 kg/m3
1626.3 kPa	973.9 kg/m3
1632.1 kPa	973.7 kg/m3
1639.4 kPa	973.9 kg/m3
1645.6 kPa	973.8 kg/m3
1653.1 kPa	973.9 kg/m3
1660 kPa	973.9 kg/m3
1667 kPa	973.8 kg/m3
1674.8 kPa	973.9 kg/m3
1682.8 kPa	973.8 kg/m3
1689 kPa	973.9 kg/m3
1695.8 kPa	973.9 kg/m3
1703.9 kPa	974 kg/m3
1710.5 kPa	973.9 kg/m3
1718.3 kPa	974 kg/m3
1725.1 kPa	973.9 kg/m3
1732.7 kPa	973.7 kg/m3
1739.2 kPa	973.8 kg/m3
1747.3 kPa	973.9 kg/m3
1753.9 kPa	973.9 kg/m3
1761.9 kPa	974 kg/m3
1770.6 kPa	973.9 kg/m3
1777.5 kPa	974 kg/m3
1896.8 kPa	974 kg/m3
1906.3 kPa	974 kg/m3
1914.3 kPa	974.1 kg/m3
1923.6 kPa	973.9 kg/m3
1931.8 kPa	974 kg/m3
1940.3 kPa	974 kg/m3
1947.8 kPa	974 kg/m3
1956.8 kPa	974.1 kg/m3
1966 kPa	974 kg/m3
1973.3 kPa	974 kg/m3
1981.3 kPa	974.1 kg/m3
1990.8 kPa	974.2 kg/m3
2115.6 kPa	974 kg/m3
2124.4 kPa	974.1 kg/m3
2134.6 kPa	974.2 kg/m3
2174 kPa	974.2 kg/m3
2184.9 kPa	974.2 kg/m3
2193.8 kPa	974.2 kg/m3
2203.2 kPa	974.3 kg/m3
2214.3 kPa	974.2 kg/m3
2223.5 kPa	974.3 kg/m3
2234.2 kPa	974.3 kg/m3
2245.5 kPa	974.4 kg/m3
2255 kPa	974.4 kg/m3
2264.6 kPa	974.2 kg/m3
2495.1 kPa	974.6 kg/m3
2505.3 kPa	974.6 kg/m3
2517.8 kPa	974.5 kg/m3
2528.6 kPa	974.4 kg/m3
2541.1 kPa	974.5 kg/m3
2553.7 kPa	974.6 kg/m3
2564.1 kPa	974.4 kg/m3
2574.7 kPa	974.3 kg/m3
2587.7 kPa	974.5 kg/m3
2599.7 kPa	974.4 kg/m3
2609.9 kPa	974.6 kg/m3
2622.2 kPa	974.5 kg/m3
2632.1 kPa	974.6 kg/m3
2642.3 kPa	974.5 kg/m3
2654.5 kPa	974.6 kg/m3
2664.9 kPa	974.6 kg/m3
2676.8 kPa	974.6 kg/m3
2689.2 kPa	974.6 kg/m3
2699.9 kPa	974.4 kg/m3
2710 kPa	974.6 kg/m3
2722.3 kPa	974.6 kg/m3
2732.8 kPa	974.6 kg/m3
2745.2 kPa	974.6 kg/m3
2758 kPa	974.5 kg/m3
2768.6 kPa	974.7 kg/m3
2779.1 kPa	974.7 kg/m3
2791.8 kPa	974.6 kg/m3
2801.9 kPa	974.7 kg/m3
2814.5 kPa	974.7 kg/m3
2827.5 kPa	974.6 kg/m3
2837.8 kPa	974.7 kg/m3
2849 kPa	974.6 kg/m3
2862 kPa	974.6 kg/m3
2872.9 kPa	974.7 kg/m3
2885.9 kPa	974.7 kg/m3
2910.2 kPa	974.8 kg/m3
2921.8 kPa	974.6 kg/m3
2946.6 kPa	974.8 kg/m3
2960 kPa	974.8 kg/m3
3369.6 kPa	975.1 kg/m3
3401.3 kPa	975.1 kg/m3
3416.4 kPa	975.1 kg/m3
3430.9 kPa	975.1 kg/m3
3448.4 kPa	975.1 kg/m3
3481 kPa	975.1 kg/m3
3512.7 kPa	975.1 kg/m3
3527.3 kPa	975.1 kg/m3
3544.2 kPa	975.1 kg/m3
3557.7 kPa	975.2 kg/m3
3574.4 kPa	975.2 kg/m3
3588.4 kPa	975.2 kg/m3
3605 kPa	975.1 kg/m3
3619.2 kPa	975.1 kg/m3
3805.2 kPa	975.3 kg/m3
3820 kPa	975.3 kg/m3
3837.5 kPa	975.4 kg/m3
3851.8 kPa	975.4 kg/m3
3869.3 kPa	975.5 kg/m3
3886.8 kPa	975.5 kg/m3
3901.9 kPa	975.4 kg/m3
3917 kPa	975.4 kg/m3
3935.3 kPa	975.5 kg/m3
3950.4 kPa	975.4 kg/m3
3968.8 kPa	975.5 kg/m3
3984.3 kPa	975.5 kg/m3
4002.9 kPa	975.4 kg/m3
4018.6 kPa	975.5 kg/m3
4034.4 kPa	975.4 kg/m3
4138.3 kPa	975.6 kg/m3
4157.9 kPa	975.5 kg/m3
4209.5 kPa	975.6 kg/m3
4228.7 kPa	975.6 kg/m3
4245.5 kPa	975.7 kg/m3
4265.2 kPa	975.6 kg/m3
4281.8 kPa	975.7 kg/m3
4301.8 kPa	975.7 kg/m3
4319.1 kPa	975.8 kg/m3
4339.5 kPa	975.8 kg/m3
4356.6 kPa	975.7 kg/m3
4377.1 kPa	975.8 kg/m3
4397.7 kPa	975.8 kg/m3
4414.6 kPa	975.8 kg/m3
4431.8 kPa	975.7 kg/m3
4453.1 kPa	975.7 kg/m3
4474 kPa	975.7 kg/m3
4491.8 kPa	975.8 kg/m3
4509.3 kPa	975.7 kg/m3
6215.6 kPa	977 kg/m3
6237.7 kPa	977 kg/m3
6256.2 kPa	977.1 kg/m3
6278.3 kPa	977.1 kg/m3
6297 kPa	977 kg/m3
6319.4 kPa	977.2 kg/m3
6338.8 kPa	977.1 kg/m3
6508.8 kPa	977.2 kg/m3
6532.7 kPa	977.2 kg/m3
6552.5 kPa	977.2 kg/m3
7405.8 kPa	977.7 kg/m3
7431 kPa	977.8 kg/m3
7486 kPa	977.8 kg/m3
7516.4 kPa	978 kg/m3
7547.5 kPa	977.8 kg/m3
7600 kPa	978 kg/m3
7657.3 kPa	978 kg/m3
7688 kPa	978 kg/m3
7711.5 kPa	978.1 kg/m3
7734.2 kPa	978.1 kg/m3
7761.5 kPa	978 kg/m3
7886.8 kPa	978.1 kg/m3
7915.3 kPa	978.1 kg/m3
7938.6 kPa	978.2 kg/m3
7966.7 kPa	978.2 kg/m3
7990.5 kPa	978.2 kg/m3
8019.5 kPa	978.3 kg/m3
8044.2 kPa	978.3 kg/m3
8073.3 kPa	978.1 kg/m3
8098.3 kPa	978.3 kg/m3
8128.9 kPa	978.3 kg/m3
8158.2 kPa	978.5 kg/m3
8182.5 kPa	978.3 kg/m3
8207.5 kPa	978.3 kg/m3
9038.7 kPa	978.9 kg/m3
9060.6 kPa	979.1 kg/m3
9078.3 kPa	978.9 kg/m3
9100 kPa	978.9 kg/m3
9123 kPa	978.9 kg/m3
9245.2 kPa	979 kg/m3
9267 kPa	979 kg/m3
9289.4 kPa	979.1 kg/m3
9308.6 kPa	979.1 kg/m3
9331.8 kPa	979.1 kg/m3
9354.9 kPa	979 kg/m3
9374.6 kPa	979.1 kg/m3
9395.3 kPa	979.1 kg/m3
9417.9 kPa	979.2 kg/m3
9435.5 kPa	979.1 kg/m3
9456.1 kPa	979.2 kg/m3
9473 kPa	979.2 kg/m3
9493.7 kPa	979.2 kg/m3
9510.8 kPa	979.3 kg/m3
9531.3 kPa	979.2 kg/m3
9552.1 kPa	979.3 kg/m3
9569.5 kPa	979.3 kg/m3
9590.4 kPa	979.3 kg/m3
9603.6 kPa	979.4 kg/m3
9617.2 kPa	979.3 kg/m3
9629.1 kPa	979.4 kg/m3
9642.9 kPa	979.3 kg/m3
9655.3 kPa	979.4 kg/m3
9669.9 kPa	979.3 kg/m3
9681.3 kPa	979.5 kg/m3
9694.7 kPa	979.3 kg/m3
9706.3 kPa	979.4 kg/m3
9735.4 kPa	979.4 kg/m3
9747.4 kPa	979.4 kg/m3
9762.1 kPa	979.4 kg/m3
9776.4 kPa	979.4 kg/m3
9788.2 kPa	979.5 kg/m3
9798.4 kPa	979.4 kg/m3
9804.9 kPa	979.4 kg/m3
9900.4 kPa	979.4 kg/m3
9910.4 kPa	979.4 kg/m3
9915.9 kPa	979.4 kg/m3
9925.7 kPa	979.6 kg/m3
9936.9 kPa	979.5 kg/m3
9949.3 kPa	979.5 kg/m3
9960.5 kPa	979.5 kg/m3
9987.7 kPa	979.6 kg/m3
9992.5 kPa	979.5 kg/m3
10032 kPa	979.7 kg/m3
10036 kPa	979.6 kg/m3 and 979.7 kg/m3
10106 kPa	979.7 kg/m3
10118 kPa	979.7 kg/m3
10128 kPa	979.6 kg/m3
10139 kPa	979.6 kg/m3
10152 kPa	979.6 kg/m3
10164 kPa	979.7 kg/m3
10182 kPa	979.6 kg/m3
10203 kPa	979.7 kg/m3
10219 kPa	979.8 kg/m3
10240 kPa	979.8 kg/m3
10257 kPa	979.7 kg/m3
10473 kPa	979.9 kg/m3
10503 kPa	979.9 kg/m3
10540 kPa	980 kg/m3
10575 kPa	979.9 kg/m3
10605 kPa	980 kg/m3
10670 kPa	980 kg/m3
10704 kPa	980 kg/m3
10737 kPa	980.1 kg/m3
10764 kPa	980.1 kg/m3
10956 kPa	980.2 kg/m3
10977 kPa	980.2 kg/m3
11001 kPa	980.3 kg/m3
11018 kPa	980.2 kg/m3
11037 kPa	980.2 kg/m3
11056 kPa	980.3 kg/m3
11071 kPa	980.4 kg/m3
11201 kPa	980.4 kg/m3
11204 kPa	980.4 kg/m3
11210 kPa	980.4 kg/m3
11217 kPa	980.4 kg/m3
11228 kPa	980.4 kg/m3
11243 kPa	980.4 kg/m3
11257 kPa	980.3 kg/m3
11280 kPa	980.5 kg/m3
11301 kPa	980.4 kg/m3
11327 kPa	980.5 kg/m3
11349 kPa	980.5 kg/m3
11374 kPa	980.6 kg/m3
11395 kPa	980.6 kg/m3
11421 kPa	980.6 kg/m3
11448 kPa	980.5 kg/m3
11470 kPa	980.5 kg/m3
11496 kPa	980.6 kg/m3
11518 kPa	980.6 kg/m3
11545 kPa	980.6 kg/m3
11572 kPa	980.5 kg/m3
11594 kPa	980.5 kg/m3
11621 kPa	980.6 kg/m3
11849 kPa	980.8 kg/m3
11899 kPa	980.9 kg/m3
11926 kPa	980.8 kg/m3
